# In patent publication US8759051B2, “Control of contaminant microorganisms in fermentation processes with peroxygen-releasing compounds” (E I du Pont de Nemours and Company, priority 2010, dated 2014):
# Several values for one entry are separate records, joined by “and”; a condition that tells them apart may be missing. Equal entries are not always repeated.
# How the values were obtained:
# [1] = system: lactic acid bacteria (LAB); assay: Susceptibility of lactic acid bacteria cocktail to sodium percarbonate in diluted molasses (Example 1); assay type: cell-based; details: for LAB level after treatment: approx. 2 hours, 32° C., molasses
# Procedure: In this example, the susceptibility of yeast and lactic acid bacteria to sodium percarbonate was determined in molasses. Molasses was prepared by diluting molasses (B&G Foods, Inc., Roseland, N.J.) 1 part to 3.1 parts water to mimic conditions used for ethanol production based on a molasses feedstock (common in Latin America and Asia). The diluted molasses was autoclaved at 121° C. for 15 minutes to sterilize prior to use in the experiment. Cultures of lactic acid bacteria (LAB) (Lactobacillus plantarum, Lactobacillus brevis, Lactobacillus fermentum, and Lactobacillus paracasei) were prepared by inoculating MRS broth (available from Difco Laboratories Inc., Sparks, Md.) and incubating overnight at 32° C. with agitation. The bacteria were selected because they had previously been isolated from contaminated ethanol fermentation processes. Cultures of each organism were combined to create a bacterial cocktail and diluted in molasses to give 1.0×10^7, 1.0×10^6, and 1.0×10^5 bacteria/ml, or commonly expressed as colony forming units per milliliter or CFU/ml). Sodium percarbonate (Alfa Aesar, Ward Hill, Mass.) was prepared as a 2% solution immediately prior to use. Percarbonate was added to tubes containing 25 ml of inoculated molasses to give concentrations of 0, 100, 250, 500 and 1000 ppm. Tubes were incubated at 32° C. with agitation. After approximately 2 hours, bacterial levels present in each tube were enumerated by plating decimal dilutions of molasses onto the surface of MRS agar plates (Difco Laboratories Inc., Sparks, Md.). Plates were incubated overnight at 32° C.
# Ethanol Red = assay: Susceptibility of fermenting yeast to sodium percarbonate in diluted molasses (Example 1, second part); assay type: cell-based; details: for yeast level after treatment: two hours, molasses
# Procedure: (§1) In a second part of this Example 1, the yeasts strains Ethanol Red, FermPro S, and SuperStart (commonly used as fermenting yeasts in the ethanol industry) were cultured overnight in Yeast Peptone Dextrose broth (YPD, Difco Laboratories Inc., Sparks, Md.). Individual strains were then suspended in dilute molasses as above to give approximately 1×10^6 CFU/ml and treated with various concentration of percarbonate for two hours as described above.
# FermPro S = assay: as above; assay type: cell-based; details: for yeast level after treatment: two hours, molasses
# Procedure: as §1
# SuperStart = assay: as above; assay type: cell-based; details: for yeast level after treatment: two hours, molasses
# Procedure: as §1
# [2] = Stability of peroxygen-releasing compounds during storage at 40° C., iodometric titration of hydrogen peroxide (Example 4); assay type: physicochemical
# Procedure: A dry oven was used to store samples of the peroxygen-releasing compounds at 40° C. The oven was allowed to equilibrate overnight. Two-gram duplicate samples of each of the following peroxygen-releasing compounds were dispensed into aluminum weighing dishes: sodium percarbonate (Alfa Aesar, Ward Hill, Mass.), sodium percarbonate FB 400 (Solvay Chemicals, Inc., Houston, Tex.), sodium percarbonate FB […] (Solvay Chemicals, Inc.), calcium peroxide (Sigma-Aldrich Co., St. […] After six days, samples were analyzed for levels of hydrogen peroxide using standard iodometric titration.
# [3] = system: lactic acid bacteria (LAB); assay: Inactivation of LAB in dilute molasses at pH 5.0 in the presence of yeast Ethanol Red (Example 5); assay type: cell-based; details: for Log CFU/mL of LAB at hour indicated: 32° C.
# Procedure: Cultures of lactic acid bacteria (LAB) were prepared as in Example 1 above. Molasses was diluted 1:3.1 with water as in previous examples. The fermenting yeast Ethanol Red was cultured as in example 1. Populations of lactic acid bacteria and yeasts were determined by dilution plating on MRS agar and YPD agar, respectively. Overnight cultures of LAB were mixed to prepare a bacterial cocktail and inoculated into molasses (diluted 1:3.1 with water) adjusted to pH 5.0 to give approximately 6.11 Log CFU/ml. Cultures of yeasts were added to each tube at a concentration of approximately 6.80 Log CFU/ml. […] The amount of UHP added was 1450 ppm. The amount of percarbonate added was 1812 ppm. Tubes were then incubated at 32° C. with agitation. […] Amphotericin inhibits the growth of yeast, facilitating enumeration of bacteria only.
# [4] = 1.0×10^6 CFU/ml, 500 ppm percarbonate
structure (smiles),measurement,setting,value
"O=C([O-])[O-].O=C([O-])[O-].OO.OO.OO.[Na+].[Na+].[Na+].[Na+] [Sodium percarbonate, sodium percarbonate]",log reductions of LAB,[1]; 1000 ppm percarbonate,> 6 log
same,LAB level (below detectable limit of the assay),"[1]; 1000 ppm percarbonate, all of the tested levels of LAB",< 10 CFU/ml
same,reduction in the level of bacteria,"[1]; initial LAB 1.0×10^6 or 1.0×10^7 CFU/ml, 500 ppm percarbonate",2 log
same,LAB level after treatment,"[1]; inoculum 1.0 × 10^5 CFU/ml, 100 ppm percarbonate",8.90 × 10^4 CFU/ml
same,LAB level after treatment,"[1]; inoculum 1.0 × 10^5 CFU/ml, 250 ppm percarbonate",1.80 × 10^3 CFU/ml
same,LAB level after treatment,"[1]; inoculum 1.0 × 10^5 CFU/ml, 500 ppm percarbonate",1.70 × 10^2 CFU/ml
same,LAB level after treatment,"[1]; inoculum 1.0 × 10^5 CFU/ml, 1000 ppm percarbonate",<10 CFU/ml
same,LAB level after treatment,"[1]; inoculum 1.0 × 10^6 CFU/ml, 100 ppm percarbonate",8.50 × 10^5 CFU/ml
same,LAB level after treatment,"[1]; inoculum 1.0 × 10^6 CFU/ml, 250 ppm percarbonate",1.55 × 10^5 CFU/ml
same,LAB level after treatment,"[1]; inoculum 1.0 × 10^6 CFU/ml, 500 ppm percarbonate",1.17 × 10^4 CFU/ml
same,LAB level after treatment,"[1]; inoculum 1.0 × 10^6 CFU/ml, 1000 ppm percarbonate",<10 CFU/ml
same,LAB level after treatment,"[1]; inoculum 1.0 × 10^7 CFU/ml, 100 ppm percarbonate",6.90 × 10^6 CFU/ml
same,LAB level after treatment,"[1]; inoculum 1.0 × 10^7 CFU/ml, 250 ppm percarbonate",1.68 × 10^6 CFU/ml
same,LAB level after treatment,"[1]; inoculum 1.0 × 10^7 CFU/ml, 500 ppm percarbonate",1.20 × 10^5 CFU/ml
same,LAB level after treatment,"[1]; inoculum 1.0 × 10^7 CFU/ml, 1000 ppm percarbonate",<10 CFU/ml
same,reduction in the level of bacteria,"[1]; starting LAB 1.0×10^5 CFU/ml, 500 ppm percarbonate, two hours",~3 log
same,reduction of yeast,Ethanol Red; [4],< 1 log
same,yeast level after treatment,Ethanol Red; 100 ppm percarbonate,7.90 × 10^6 CFU/ml
same,yeast level after treatment,Ethanol Red; 250 ppm percarbonate,5.00 × 10^6 CFU/ml
same,yeast level after treatment,Ethanol Red; 500 ppm percarbonate,1.99 × 10^6 CFU/ml
same,reduction of yeast,Ethanol Red; 1000 ppm percarbonate,approximately 1 log
same,yeast level after treatment,Ethanol Red; 1000 ppm percarbonate,4.90 × 10^5 CFU/ml
same,reduction of yeast,FermPro S; [4],< 1 log
same,yeast level after treatment,FermPro S; 100 ppm percarbonate,7.30 × 10^6 CFU/ml
same,yeast level after treatment,FermPro S; 250 ppm percarbonate,3.00 × 10^6 CFU/ml
same,yeast level after treatment,FermPro S; 500 ppm percarbonate,1.43 × 10^6 CFU/ml
same,reduction of yeast,FermPro S; 1000 ppm percarbonate,approximately 1 log
same,yeast level after treatment,FermPro S; 1000 ppm percarbonate,2.90 × 10^5 CFU/ml
same,reduction in the concentration of yeast,SuperStart; [4],approximately 1 log
same,yeast level after treatment,SuperStart; 100 ppm percarbonate,1.22 × 10^6 CFU/ml
same,yeast level after treatment,SuperStart; 250 ppm percarbonate,3.80 × 10^5 CFU/ml
same,yeast level after treatment,SuperStart; 500 ppm percarbonate,1.07 × 10^5 CFU/ml
same,yeast level after treatment,SuperStart; 1000 ppm percarbonate,6.00 × 10^3 CFU/ml
same,% Remaining H2O2 Day 0,[2],100%
same,% Remaining H2O2 Day 6,[2],99%
same,% Remaining H2O2 Day 14,[2],99%
same,% H2O2 Day 0,"[2]; before storage, duplicate samples, listed as Sodium percarbonate (Alfa Aesar)",27.48% and 27.38%
same,% H2O2 Day 6,"[2]; storage at 40° C. in dry oven, day 6, duplicate samples, listed as Sodium percarbonate (Alfa Aesar)",27.12% and 27.05%
same,% H2O2 Day 14,"[2]; storage at 40° C. in dry oven, day 14, duplicate samples, listed as Sodium percarbonate (Alfa Aesar)",27.11% and 26.99%
same,reduction of the population of LAB,"[3]; 500 ppm as H2O2, 2 hours of incubation at 32° C., in presence of yeast",~5 log units
same,Log CFU/mL of LAB at hour indicated,"[3]; 500 ppm as H2O2, hour 2, molasses pH 5.0, yeast approx. 6.80 Log CFU/ml",1.95 Log CFU/mL
same,Log CFU/mL of LAB at hour indicated,"[3]; 500 ppm as H2O2, hour 6, molasses pH 5.0, yeast approx. 6.80 Log CFU/ml, listed as percarbonate",<1 Log CFU/mL
same,Log CFU/mL of LAB at hour indicated,"[3]; 500 ppm as H2O2, hour 6, molasses pH 5.0, yeast approx. 6.80 Log CFU/ml, listed as sodium percarbonate",below the detectable limit
